This note sets out measurements from the supplement of paper PMC10307832.

Assay in all cases: relative viability (nuclei count vs DMSO), 5 days (fraction); higher = more cells survive
Compound in assay [1]: Cn1cncc1[C@@](N)(c1ccc(Cl)cc1)c1ccc2c(c1)c(-c1cccc(Cl)c1)cc(=O)n2C [Tipifarnib] + Cc1cc(Nc2cc(N3CCN(C)CC3)nc(Sc3ccc(NC(=O)C4CC4)cc3)n2)n[nH]1 [Tozasertib] (partner 0.1 µM)
The essentials: (§1)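 Values are medians from duplicate plates. Each reflects relative viability, defined as the nuclei count of treated wells over that of vehicle wells. Lung cancer cell lines in 1536-well plates were pin-tool dosed one day after seeding with one drug alone or with a fixed anchor-drug dose plus five library-drug doses (not always all listed) in √10 steps, then fixed, stained and imaged at 4× after 5 days.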

Compound in assay [2]: Cn1cncc1[C@@](N)(c1ccc(Cl)cc1)c1ccc2c(c1)c(-c1cccc(Cl)c1)cc(=O)n2C [Tipifarnib] + COc1cccc2cc(-c3nc([C@H]4CC[C@H](C(=O)O)CC4)n4ncnc(N)c34)[nH]c12 [OSI-027] (partner 0.5 µM)
Summed up: as §1

Compound in assay [3]: Cn1cncc1[C@@](N)(c1ccc(Cl)cc1)c1ccc2c(c1)c(-c1cccc(Cl)c1)cc(=O)n2C [Tipifarnib] + C[C@@H](Oc1cc(-c2cnn(C3CCNCC3)c2)cnc1N)c1c(Cl)ccc(F)c1Cl [Crizotinib] (partner 1 µM)
Summed up:
as §1

Compound in assay [4]: Cn1cncc1[C@@](N)(c1ccc(Cl)cc1)c1ccc2c(c1)c(-c1cccc(Cl)c1)cc(=O)n2C [Tipifarnib] + C[C@]1(O)C[C@@H](c2nc(-c3ccc4ccc(-c5ccccc5)nc4c3)c3c(N)nccn32)C1 [Linsitinib] (partner 1 µM)
Summed up: as §1

Turning to ChaGo-K-1, the relative viability in assay [1] (first compound 0.01 µM) was determined as 0.226; in assay [1] (first compound 0.03162 µM), 0.22; in assay [1] (first compound 0.1 µM) it was 0.213; in assay [1] (first compound 0.3162 µM), 0.198; in assay [1] (first compound 1 µM), 0.175; in assay [2] (first compound 0.01 µM), 0.483. Further, the relative viability in assay [2] (first compound 0.03162 µM) worked out at 0.548; in assay [2] (first compound 0.1 µM) it was 0.602; in assay [2] (first compound 0.3162 µM) it was 0.442; in assay [2] (first compound 1 µM), 0.332; in assay [3] (first compound 0.01 µM) it was 1.12; in assay [3] (first compound 0.03162 µM), 1.23. Moreover, the figures for the relative viability in assay [3] (first compound 0.1 µM), in assay [3] (first compound 0.3162 µM) and in assay [3] (first compound 1 µM) were 0.762, 0.992 and 0.484, respectively.

With NCI-H1755, the relative viability was 0.741 in assay [1] (first compound 0.01 µM); 0.584 in assay [1] (first compound 0.03162 µM); 0.639 in assay [1] (first compound 0.1 µM); 0.518 in assay [1] (first compound 0.3162 µM); 0.569 in assay [1] (first compound 1 µM); 0.75 in assay [2] (first compound 0.01 µM). Also, the relative viability in assay [2] (first compound 0.03162 µM) was 0.603; in assay [2] (first compound 0.1 µM), 0.677; in assay [2] (first compound 0.3162 µM), 0.622; in assay [2] (first compound 1 µM), 0.452; in assay [4] (first compound 0.01 µM) it was 0.995; in assay [4] (first compound 0.03162 µM) it was 0.957. The relative viability in assay [4] (first compound 0.1 µM) is 0.928; in assay [4] (first compound 0.3162 µM), 0.913; in assay [4] (first compound 1 µM), 0.897; in assay [3] (first compound 0.01 µM), 0.83; in assay [3] (first compound 0.03162 µM), 0.79; in assay [3] (first compound 0.1 µM), 0.818. The relative viability in assay [3] (first compound 0.3162 µM) amounted to 0.742; in assay [3] (first compound 1 µM), 0.688.

On to NCI-H2228, for which the relative viability was 0.24 in assay [1] (first compound 0.01 µM); 0.164 in assay [1] (first compound 0.03162 µM); 0.223 in assay [1] (first compound 0.1 µM); 0.174 in assay [1] (first compound 0.3162 µM); 0.235 in assay [1] (first compound 1 µM); 0.502 in assay [2] (first compound 0.01 µM). Besides, the relative viability in assay [2] (first compound 0.03162 µM) was determined as 0.427; in assay [2] (first compound 0.1 µM) it was 0.363; in assay [2] (first compound 0.3162 µM), 0.214; in assay [2] (first compound 1 µM), 0.168; in assay [4] (first compound 0.01 µM), 0.771; in assay [4] (first compound 0.03162 µM) it was 0.416. In addition, the relative viability in assay [4] (first compound 0.1 µM) amounted to 0.611; in assay [4] (first compound 0.3162 µM), 0.382; in assay [4] (first compound 1 µM), 0.494; in assay [3] (first compound 0.01 µM), 0.413; in assay [3] (first compound 0.03162 µM), 0.443; in assay [3] (first compound 0.1 µM), 0.45. Further, the results for the relative viability in assay [3] (first compound 0.3162 µM) and in assay [3] (first compound 1 µM) were 0.293 and 0.348, respectively.

Regarding NCI-H2087, the relative viability in assay [1] (first compound 0.01 µM) is 0.245; in assay [1] (first compound 0.03162 µM), 0.164; in assay [1] (first compound 0.1 µM), 0.164; in assay [1] (first compound 0.3162 µM), 0.132; in assay [1] (first compound 1 µM), 0.132; in assay [2] (first compound 0.01 µM), 0.464. Moreover, the relative viability turned out to be 0.205 in assay [2] (first compound 0.03162 µM); 0.232 in assay [2] (first compound 0.1 µM); 0.161 in assay [2] (first compound 0.3162 µM); 0.164 in assay [2] (first compound 1 µM); 0.797 in assay [4] (first compound 0.01 µM); 0.583 in assay [4] (first compound 0.03162 µM). Besides, the relative viability came to 0.514 in assay [4] (first compound 0.1 µM); 0.5 in assay [4] (first compound 0.3162 µM); 0.447 in assay [4] (first compound 1 µM); 0.529 in assay [3] (first compound 0.01 µM); 0.534 in assay [3] (first compound 0.03162 µM); 0.268 in assay [3] (first compound 0.1 µM). Also, the figures for the relative viability in assay [3] (first compound 0.3162 µM) and in assay [3] (first compound 1 µM) were 0.438 and 0.377, respectively.

Consider LU99A, for which the relative viability in assay [1] (first compound 0.01 µM) was 0.261; in assay [1] (first compound 0.03162 µM), 0.249; in assay [1] (first compound 0.1 µM) it was 0.223; in assay [1] (first compound 0.3162 µM), 0.232; in assay [1] (first compound 1 µM) it was 0.223; in assay [2] (first compound 0.01 µM) it was 0.242. The relative viability in assay [2] (first compound 0.03162 µM) stood at 0.229; in assay [2] (first compound 0.1 µM), 0.224; in assay [2] (first compound 0.3162 µM) it was 0.238; in assay [2] (first compound 1 µM), 0.236; in assay [4] (first compound 0.01 µM), 0.563; in assay [4] (first compound 0.03162 µM), 0.477. The relative viability in assay [4] (first compound 0.1 µM) was determined as 0.299; in assay [4] (first compound 0.3162 µM) it was 0.257; in assay [4] (first compound 1 µM), 0.272; in assay [3] (first compound 0.01 µM) it was 0.5; in assay [3] (first compound 0.03162 µM) it was 0.407; in assay [3] (first compound 0.1 µM), 0.353. Also, the relative viability in assay [3] (first compound 0.3162 µM) is 0.337; in assay [3] (first compound 1 µM) it was 0.34.

Consider NCI-H1355, for which the relative viability in assay [1] (first compound 0.01 µM) turned out to be 0.474; in assay [1] (first compound 0.03162 µM), 0.408; in assay [1] (first compound 0.1 µM), 0.321; in assay [1] (first compound 0.3162 µM), 0.349; in assay [1] (first compound 1 µM), 0.329; in assay [2] (first compound 0.01 µM), 0.37. For the same cell line, the relative viability in assay [2] (first compound 0.03162 µM) was 0.344; in assay [2] (first compound 0.1 µM), 0.295; in assay [2] (first compound 0.3162 µM), 0.262; in assay [2] (first compound 1 µM), 0.26; in assay [4] (first compound 0.01 µM), 0.861; in assay [4] (first compound 0.03162 µM), 0.896. Also, the relative viability in assay [4] (first compound 0.1 µM) worked out at 0.649; in assay [4] (first compound 0.3162 µM) it was 0.541; in assay [4] (first compound 1 µM) it was 0.69; in assay [3] (first compound 0.01 µM) it was 1.19; in assay [3] (first compound 0.03162 µM), 1.05; in assay [3] (first compound 0.1 µM), 0.764. Further, the relative viability was 0.64 in assay [3] (first compound 0.3162 µM) and 0.673 in assay [3] (first compound 1 µM).

NCI-H520: the relative viability amounted to 0.404 in assay [1] (first compound 0.01 µM); 0.4 in assay [1] (first compound 0.03162 µM); 0.348 in assay [1] (first compound 0.1 µM); 0.335 in assay [1] (first compound 0.3162 µM); 0.336 in assay [1] (first compound 1 µM); 0.214 in assay [2] (first compound 0.01 µM). Further, the relative viability came to 0.262 in assay [2] (first compound 0.03162 µM); 0.187 in assay [2] (first compound 0.1 µM); 0.19 in assay [2] (first compound 0.3162 µM); 0.199 in assay [2] (first compound 1 µM); 1.11 in assay [4] (first compound 0.01 µM); 0.849 in assay [4] (first compound 0.03162 µM). Besides, the relative viability in assay [4] (first compound 0.1 µM) was 0.987; in assay [4] (first compound 0.3162 µM), 0.673; in assay [4] (first compound 1 µM) it was 0.737; in assay [3] (first compound 0.01 µM) it was 1.05; in assay [3] (first compound 0.03162 µM) it was 0.598; in assay [3] (first compound 0.1 µM) it was 0.645. Further, the relative viability came to 0.341 in assay [3] (first compound 0.3162 µM) and 0.345 in assay [3] (first compound 1 µM).
